Source: patent publication US20030082135A1, “Pathway of RANTES-mediated chemokine synthesis in astrocytes and methods of use therefor” (priority 2001, published 2003)

Columns and labels:
[1] = system: primary neonatal mouse astrocyte cultures; assay: RNase protection assay (RPA) for chemokine/cytokine transcripts in astrocyte cultures; assay type: cell-based
Experimental: Astrocyte isolation and culture. […] RNA isolation and RNase protection assay (RPA). […] RNase protection assays (RPA) for chemokine message were conducted with multi-probe templates according to the manufacture's protocol (RiboQuant assay kit, BD-PharMingen, San Diego, Calif.). Gels were scanned and radioactive bands quantitated using a phosphoimager (Molecular Dynamics, Sunnyvale, Calif.). Levels of uniformly expressed housekeeping genes large ribosomal subunit protein 32-3A (L32) or glyceraldehyde-3-phosphate dehydrogenase (GAPDH), were used for normalization. The value of each chemokine receptor band divided by the value of the indicated housekeeping gene band in the same sample yielded the relative intensity. Normalized receptor expression represents the ratio of the relative intensity following treatment with chemokine versus the relative intensity of medium alone. Treatment with pharmacological inhibitors. Astrocytes were washed and resuspended in serum-and insulin-free complete medium and starved overnight. Cells were treated at 37° C. for 1 h with 100 ng/ml Pertussis toxin (PTx) before addition of RANTES or IL-1. […] The cells were harvested after a 3 h incubation with RANTES; RNA was prepared and assayed by RPA.

murine KC promoter = assay: KC promoter luciferase reporter in transfected astrocytes; assay type: cell-based, mouse; settings: 100 ng/ml RANTES, 24 h
Text: Plasmids, transient transfection, and luciferase activity assay. The KC reporter plasmid was constructed by using a luciferase reporter gene pGL-3 basic vector (Promega, Madison, Wis.) driven by mouse KC promoter (−2878/+43). Wild-type p90RSK expression (WT pKH3) and dominant negative p90RSK expression (ΔΔ RSK pKH3) plasmids were obtained from Dr. John Blenis, Harvard Medical School. Astrocytes were transiently transfected with Lipofectamine 2000 reagent (Life Technologies, Gaithersburg, Md.) according to the manufacturer's protocol. After 24 h, the cells were stimulated with RANTES in absence or presence of the indicated inhibitor, and luciferase activity was determined after an additional 24 h, by the procedure according to the manufacturer (Promega, Madison, Wis.). Relative luciferase activity was normalized for cell lysate protein concentration as determined by BCA protein assay kit (Pierce, Rockford, Ill.). The Relative Fold Induction is the relative intensity of the experimental sample divided by the relative intensity of the medium control.
To establish whether RANTES up-regulation of chemokine production is mediated by activation of promoter elements, primary astrocyte cultures were transiently transfected with a murine KC promoter-luciferase construct, and reporter activity was monitored after RANTES treatment.

[2] = system: intracellular cAMP in astrocytes; assay: Intracellular cAMP in astrocytes (EIA); assay type: cell-based, mouse
Experimental: FIG. 8 is a set of bar graphs showing that RANTES reduced intracellular cAMP accumulation in astrocytes. Panel A. Astrocytes were treated with the indicated doses of RANTES or TCA4 for 5 min. Intracellular cAMP was detected as described in Materials and Methods. Values represent the mean±S.E.M of triplicate experiments. Panel B. Kinetics of intracellular cAMP levels. Astrocytes were treated with 100 ng/ml RANTES for indicated times. Panel C. RANTES inhibited forskolin-induced intracellular cAMP accumulation. Astrocytes were pretreated with 1 μM forskolin for 1 h then stimulated with the indicated amount of RANTES for 5 min. Intracellular cAMP was determined by EIA. Values are presented as relative cAMP level and represent the mean±S.E.M. of triplicate experiments.
To further elucidate the RANTES-mediated signaling pathway in astrocytes, intracellular cAMP levels were evaluated following chemokine stimulation. Primary mouse astrocytes were incubated with the indicated dose of RANTES or the negative control chemokine, TCA4 for 5 min and monitored for cAMP levels. RANTES (100 ng/ml) decreased intracellular cAMP levels by 68% in a dose dependent fashion (FIG. 8A).

PKA = PKA activity assay on lysates of treated astrocytes; assay type: cell-based, mouse
Experimental: PKA activity assay. PKA activity was determined using a commercially available kit (Calbiochem, San Diego, Calif.) according to manufacturer's recommendations. Primary mouse astrocytes were grown in 6-well plates and then stimulated as described and lysed in 100 μl buffer (same buffer used for Western blotting) for 30 min. Five μl of the lysates were incubated with 20 μl PKA reaction mixture at 30° C. for 30 min. The reaction was terminated by adding 10 μl stop solution and ^32P radioactivity was counted.

mouse thymocytes = assay: RPA for chemokine/cytokine transcripts in thymocytes; assay type: cell-based; settings: 100 ng/ml, 6 h
Experimental: To evaluate the cellular specificity of chemokine induction by RANTES-related chemokines, mouse thymocytes were treated with 2.5 μg/ml ConA, 100 ng/ml RANTES, or TCA4. After 6 h the cells were harvested for RNA extraction. […] Thus, the ability of RANTES-related chemokines to up-regulate chemokine/cytokine synthesis is not a generalized phenomenon in all cell types, but is specific for CNS cells such as astrocytes.

[3] = system: phosphorylated RSK in astrocytes; assay: Immunofluorescence of phospho-p90RSK translocation; assay type: cell-based, mouse; settings: 100 ng/ml RANTES, 5 or 20 min
Experimental: Immunofluorescence. Astrocytes were grown on glass coverslips for a day; the cells were then serum-starved for three hours. Astrocytes were treated with RANTES for 5 or 20 minutes. Following treatment, cells were fixed in −20° C. methanol, permeabilized in ice-cold 0.2% Triton X-100 in PBS and incubated with phospho-p90RSK (Thr360/Ser364) antibody overnight at 4° C., followed by incubation with Alexa Fluor 555 goat anti-rabbit IgG (Molecular Probes, Eugene, Oreg.). Nuclei were stained with Hoechst 33258 (1:2000) for 5 min; coverslips were mounted on slides using the ProLong Antifade Kit (Molecular Probes, Eugene, Oreg.). Slides were stored at room temperature in the dark until observation.
The ability of RANTES to induce nuclear translocation of RSK was examined.

astrocytes = assay: ELISA of KC, TNF-α and MCP-1 protein in astrocyte culture supernatants; assay type: cell-based, mouse; settings: 48 h, 1.5 to 100 ng/ml tested

Substance: RANTES
- production of chemokine transcripts by astrocytes from mice deficient for CCR1, CCR2, CCR3, or CCR5 ([1]; 100 ng/ml): specifically responded
- expression of TNF-α, RANTES, KC, MIP-1α, MIP-2, and MCP-1 transcripts ([1]; BALB/cJ neonatal astrocytes, chemokine for 6 h): up-regulated
- duration of RANTES transcription ([1]; RANTES-induced): greater than 24 h
- time after which TNF-α mRNA disappeared ([1]; RANTES-induced): 18 h
- time at which TNF-α mRNA was detected ([1]; RANTES-induced): 1.5 h
- time at which bands for RANTES and MIP-1α were visible ([1]; RANTES-induced): 3 h
- time by which MIP-1α mRNA was down regulated ([1]; RANTES-induced): ≤ 24 h
- time of transient production of IL-6 transcripts ([1]; RANTES-induced): 6 to 24 h
- transcripts for the chemokine TCA3 ([1]; RANTES-induced, any time point): not detected
- time at which RANTES and IL-6 transcripts appear ([1]; after RANTES stimulation): 4 to 8 h
- time at which TNF-α, KC, and MIP-2 transcripts were detected ([1]; after RANTES stimulation): 60 to 90 min
- time at which bands for MIP-1α and MCP-1 became visible ([1]; after RANTES stimulation): 2 h
- expression of TNF-α, RANTES, KC, IL-6, MIP-1α, MIP-2, and MCP-1 transcripts ([1]; astrocytes treated with RANTES, time course): up-regulated
- ability to induce chemokine transcripts after boiling ([1]; boiled for 30 min before incubation with astrocytes): completely destroyed
- concentration yielding optimal stimulation of transcripts ([1]; preliminary experiments): 100 ng/mL
- stimulation of KC promoter-luciferase reporter activity (murine KC promoter): about four
- time within which intracellular cAMP was dramatically decreased ([2]; 100 ng/ml RANTES): ≤ 1 min
- decrease of intracellular cAMP levels ([2]; 100 ng/ml, 5 min): 68%
- effect on forskolin-induced cAMP accumulation ([2]; 1 μM forskolin 1 h, then RANTES 5 min): inhibited forskolin-induced cAMP accumulation in a dose dependent manner
- inhibition of PKA activity (PKA; 100 ng/ml RANTES, 20 min): 60%
- time of maximal reduction of PKA kinase activity (PKA; after RANTES stimulation): 10 min
- RANTES and TNF-α RNA levels in thymocytes (mouse thymocytes): not to ber further enhanced
- nuclear translocation of phosphorylated RSK [3]: nuclear translocation was noted at 5 min
- concentration inducing KC protein (astrocytes): ≥ 10 ng/mL
